Data from publication PMC8151276, “An Integrated Approach toward NanoBRET Tracers for Analysis of GPCR Ligand Engagement” (Molecules, 2021).

Target: T1, CCKBR (Homo sapiens, UniProt P32239)
T1 construct: purchased Promega (in-house HiBiT-GPCR construct library, NanoBRET)
T1 sequence (P32239 1-447): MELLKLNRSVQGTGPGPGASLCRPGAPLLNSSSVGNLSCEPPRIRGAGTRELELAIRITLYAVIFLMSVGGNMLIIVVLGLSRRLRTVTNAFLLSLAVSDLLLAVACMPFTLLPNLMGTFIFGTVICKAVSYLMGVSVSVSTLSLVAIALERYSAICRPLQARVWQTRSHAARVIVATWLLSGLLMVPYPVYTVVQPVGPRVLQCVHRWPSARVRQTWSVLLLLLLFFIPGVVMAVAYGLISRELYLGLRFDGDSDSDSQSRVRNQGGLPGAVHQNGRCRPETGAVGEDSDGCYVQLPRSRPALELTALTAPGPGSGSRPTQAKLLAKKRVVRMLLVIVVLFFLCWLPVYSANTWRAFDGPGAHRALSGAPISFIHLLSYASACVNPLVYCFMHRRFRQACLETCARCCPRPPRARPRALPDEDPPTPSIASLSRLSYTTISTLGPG
Test: NanoBRET screen HiBiT-CCKBR in HEK293
Type: binding
Description: Each tracer candidate was screened across the entire library of HiBiT-GPCR constructs using NanoBRET as the detection modality. As depicted in Figure 4A, the specificity of interactions was evaluated through decrease in BRET due to competitive displacement of a bound tracer by excess parental compound. Each tracer was analyzed for binding to each HiBiT-GPCR fusion in the absence and in the presence of competing parental compound. Briefly, HEK293 cells were transfected with HiBiT-GPCR constructs diluted into promoterless DNA to reduce expression and maximize translocation to the cell surface. Each tracer candidate was then screened at concentrations of 1 μM and 0.1 μM across cells expressing these fusions. Cells were treated for 1.5 h with tracer either alone or in the presence of 20 μM competing parental compound (i.e., control). BRET was measured upon addition of purified LgBiT and subsequent complementation with HiBiT genetically fused to a GPCR. The specificity of interactions was assessed through a decrease in BRET signal due to competitive displacement of the bound tracer. To further gauge the robustness of these interactions, the fold response over the control (i.e., BRETtracer/BRETcontrol) was calculated. We chose a 1.5-fold response, which translates to ≥7-fold signal over noise as the minimal threshold required to score an interaction as positive. […]. Below we highlight the screening results obtained for our exemplary fluorescent tracers based on Clozapine, Amitriptyline and AZD1283.
HiBiT-GPCR DNA constructs were diluted in 10 mM Tris pH 8 to a final concentration of 0.01 μg/μL, arrayed in 96-well plates and stored at −20 °C. For transfection, HEK293 cells were suspended in Opti-MEM (without phenol red) supplemented with 2% fetal bovine serum (Seradigm) and 100 units/mL penicillin–streptomycin (Gibco) at a final concentration of 220,000 cells/mL and dispensed into white 96-well plates at 90 μL/well. Subsequent transfections and screens were carried using an Agilent Bravo Automated Liquid Handling Platform. First, the 96-well HiBiT DNA arrays were diluted 25-fold in Opti-MEM (without serum or phenol red) to a final concentration of 0.0004 μg/μL and 20 μL of the diluted DNAs were transferred into new 96-well plates. Next, promoterless carrier DNA (1 μg/μL) was diluted 25-fold (0.04 μg/μL) and then dispensed into the diluted arrays at 20 μL/well. Following brief mixing, Viafect transfection reagent (Promega) diluted 16-fold into Opti-MEM was dispensed into the plates at 40 μL/well. After mixing by pipetting, plates were incubated for 10 min on the pipetting station deck. The DNA-transfection reagent complexes were then added to plates containing cells. To facilitate the screen, 10 μL of DNA-transfection reagent complexes were added in duplicates to the top 4 and bottom 4 rows, resulting in two identical 48-well arrays per plate. Plates with transfected cells were incubated for 18–20 h at 37 °C/5% CO2. A screen of each tracer across the entire library using two different concentrations requires duplicate plates of transfected cells. Depending on the number of tracers being screened, transfections can be scaled up using the same ratios. The next day, for each tracer, four 20× screening solutions in tracer dilution buffer (Promega) were prepared: two duplicates at final concentration of 20 μM and two duplicates at a final concentration of 2 μM. A competing unmodified compound was added to one of each duplicate at a final concentration of 400 μM. The four resulting solutions were diluted 4-fold in Opti-MEM without serum or phenol red to generate 5× solutions (5 µM and 0.5 µM tracer +/− 100 μM competing compound). To screen the library, a BioTek MultiFlo FX liquid dispenser was used to dispense 22.5 µL of tracer solution to the top 4 rows and 22.5 µL tracer + competing compound solution to the 4 bottom rows. Plates were briefly mixed on an orbital shaker and incubated for 1.5 h at room temperature. […]

Structure (SMILES)	NanoBRET Fold Response (CCKBR, tracer 0.1μM)	NanoBRET Fold Response (CCKBR, tracer 1μM)	further results
CCOC(=O)c1cc(C#N)c(N2CCC(C(=O)NS(=O)(=O)Cc3ccccc3/C=C/C(=O)NCCNC(=O)CCc3ccc4n3[B-](F)(F)[N+]3=C(c5ccc[nH]5)C=CC3=C4)CC2)nc1C [AZD1283-1-NB590]	–	–	NanoBRET Fold Response (CCKBR, 0.1μM): 1.18; NanoBRET Fold Response (CCKBR, 1μM): 1.10
N#CN=C(NCCCOc1cccc(CN2CCCCC2)c1)NCCNC(=O)CCOCCOCCOCCOCCNC(=O)CCc1ccc2n1[B-](F)(F)[N+]1=C(c3ccc[nH]3)C=CC1=C2 [Aminopotentidine-2-NB590]	1.17	1.04	–
CN(C)CCC=C1c2ccccc2CCc2ccc(C(=O)NCCNC(=O)CCOCCOCCOCCOCCNC(=O)CCc3ccc4n3[B-](F)(F)[N+]3=C(c5ccc[nH]5)C=CC3=C4)cc21 [Amitriptyline-a-2-NB590]	–	–	NanoBRET Fold Response (tracer at 0.1μM): 1.02; NanoBRET Fold Response (tracer at 1μM): 0.98
CN(C)CCC=C1c2ccccc2CCc2ccc(C(=O)NCCNC(=O)CCOCCOCCOCCOCCNC(=O)CCc3ccc4n3[B-](F)(F)[N+]3=C(c5ccc[nH]5)C=CC3=C4)cc21 [Amitriptyline-b-2-NB590]	–	–	NanoBRET Fold Response (tracer at 0.1μM, listed as amitriptyline-b-2-NB590): 1.10; NanoBRET Fold Response (tracer at 1μM, listed as amitriptyline-b-2-NB590): 1.09
CN(CCC=C1c2ccccc2CCc2ccccc21)C(=O)CCOCCOCCOCCOCCNC(=O)CCc1ccc2n1[B-](F)(F)[N+]1=C(c3ccc[nH]3)C=CC1=C2 [Amitriptyline-e-2-NB590]	–	–	NanoBRET Fold Response (tracer at 1μM): 1.02
COc1ccc2c(n1)c(CCNC(C)=O)cn2CCNC(=O)CCc1ccc2n1[B-](F)(F)[N+]1=C(c3ccc[nH]3)C=CC1=C2 [Azamelatonin-1-NB590]	–	–	NanoBRET Fold Response (0.1μM tracer): 1.01; NanoBRET Fold Response (1μM tracer): 1.02
COc1ccc2[nH]c(-c3ccc(CNC(=O)CCOCCOCCOCCOCCNC(=O)CCc4ccc5n4[B-](F)(F)[N+]4=C(c6ccc[nH]6)C=CC4=C5)cc3)c(CCNC(C)=O)c2n1 [AzomelatoninICO9-2-NB590]	–	–	NanoBRET Fold Response (0.1μM tracer): 1.13; NanoBRET Fold Response (1μM tracer): 1.16
O=C(CCOCCOCCOCCOCCNC(=O)CCc1ccc2n1[B-](F)(F)[N+]1=C(c3ccc[nH]3)C=CC1=C2)NCCCN1CCN(C2=Nc3cc(Cl)ccc3Nc3ccccc32)CC1 [Clozapine-a-2-NB590]	–	–	NanoBRET Fold Response (CCKBR, 0.1μM tracer): 1.01; NanoBRET Fold Response (CCKBR, 1μM tracer): 1.01
CN1CCN(C2=Nc3cc(Cl)ccc3Nc3ccc(CNC(=O)CCOCCOCCOCCOCCNC(=O)CCc4ccc5n4[B-](F)(F)[N+]4=C(c6ccc[nH]6)C=CC4=C5)cc32)CC1 [Clozapine-b-2-NB590]	–	–	NanoBRET Fold Response (CCKBR, 0.1μM tracer): 0.99; NanoBRET Fold Response (CCKBR, 1μM tracer): 1.07
CN1CCN(C2=Nc3cc(Cl)ccc3N(CC(=O)NCCOCCOCCOCCOCCNC(=O)CCc3ccc4n3[B-](F)(F)[N+]3=C(c5ccc[nH]5)C=CC3=C4)c3ccccc32)CC1 [Clozapine-c-2-NB590]	–	–	NanoBRET Fold Response (CCKBR, 0.1μM tracer): 1.04; NanoBRET Fold Response (CCKBR, 1μM tracer): 1.01
O=C(CCOCCOCCOCCOCCNC(=O)CCc1ccc2n1[B-](F)(F)[N+]1=C(c3ccc[nH]3)C=CC1=C2)NCCCN1CCN(C2=Nc3ccccc3Oc3ccc(Cl)cc32)CC1 [Loxapine-a-2-NB590]	1.05	0.98	–
COc1ccccc1N1CCN(CCCCN2C(=O)c3ccc(CNC(=O)CCOCCOCCOCCOCCNC(=O)CCc4ccc5n4[B-](F)(F)[N+]4=C(c6ccc[nH]6)C=CC4=C5)cc3C2=O)CC1 [NAN-190-2-NB590]	1.00	0.97	–
COc1ccccc1N1CCN(CCCCN2C(=O)c3ccc(CNC(=O)CCOCCNC(=O)c4ccc(CNC(=O)CCc5ccc6n5[B-](F)(F)[N+]5=C(c7ccc[nH]7)C=CC5=C6)cc4)cc3C2=O)CC1 [NAN-190-3-NB590]	0.98	0.94	–
O=C(CCc1ccc2n1[B-](F)(F)[N+]1=C(c3ccc[nH]3)C=CC1=C2)NCc1ccc(C(=O)NCCOCCC(=O)N[C@@H]2CC[C@@]3(O)[C@H]4Cc5ccc(O)c6c5[C@@]3(CCN4CC3CC3)[C@H]2O6)cc1 [Naltrexone-3-NB590]	0.79	0.93	–
Cc1cc2c(s1)Nc1ccccc1N=C2N1CCN(CCCNC(=O)CCOCCOCCOCCOCCNC(=O)CCc2ccc3n2[B-](F)(F)[N+]2=C(c4ccc[nH]4)C=CC2=C3)CC1 [Olanzapine-a-2-NB590]	1.07	0.89	–
O=C(CCc1ccc2n1[B-](F)(F)[N+]1=C(c3ccc[nH]3)C=CC1=C2)NCc1ccc(C(=O)NCCOCCOCCNCC(O)COc2cccc3ccccc23)cc1 (centres unmarked) [Propranolol-3-NB590]	–	–	NanoBRET Fold Response (CCKBR, 0.1μM): 1.05; NanoBRET Fold Response (CCKBR, 1μM): 0.91
O=C(CCc1ccc2n1[B-](F)(F)[N+]1=C(c3ccc[nH]3)C=CC1=C2)NCCOCCOCCNC(=O)OCCOCCN1CCN(C2=Nc3ccccc3Sc3ccccc32)CC1 [Quetiapine-a-2-NB590]	1.05	0.93	–
Cc1nc2n(c(=O)c1CCN1CCC(c3noc4cc(F)ccc34)CC1)CCCC2OC(=O)NCCOCCOCCOCCOCCNC(=O)CCc1ccc2n1[B-](F)(F)[N+]1=C(c3ccc[nH]3)C=CC1=C2 (centres unmarked) [Risperidone-2-NB590]	1.01	0.81	–
CC(C)N(CC[C@H](c1ccccc1)c1cc(CCNC(=O)CCOCCOCCOCCOCCNC(=O)CCc2ccc3n2[B-](F)(F)[N+]2=C(c4ccc[nH]4)C=CC2=C3)ccc1O)C(C)C [Tolterodine-2-NB590]	0.97	1.07	–
CC(C)N(CC[C@H](c1ccccc1)c1cc(CCNC(=O)c2ccc(CNC(=O)CCc3ccc4n3[B-](F)(F)[N+]3=C(c5ccc[nH]5)C=CC3=C4)cc2)ccc1O)C(C)C [Tolterodine-BZ-NB590]	0.97	1.06	–
CCCn1c(=O)c2[nH]c(-c3ccc(OCC(=O)NCCNC(=O)CCOCCNC(=O)c4ccc(CNC(=O)CCc5ccc6n5[B-](F)(F)[N+]5=C(c7ccc[nH]7)C=CC5=C6)cc4)cc3)nc2n(CCC)c1=O [XAC-3-NB590]	1.02	0.85	–
